Data: patent US12414940B2, “Method of treating malignant tumor by azabicyclic compound” (TAIHO PHARMACEUTICAL CO., LTD., priority 2018, dated 2025)

Experiments:
rat eye tissue = assay: Histopathological study in rat eye tissue (hematoxylin and eosin, TUNEL); format: in vivo, Sprague-Dawley (SD) rats; details: 10.0 mg/kg/day intravenous three times a week for 2 weeks; eyes collected 24 hours after final dose
[1] = Quantification of plasma, tumor and retinal tissue exposure in tumor-bearing rats; format: in vivo, F344 nude rats; details: intravenous administration, tumor-bearing rats
Description: After the administration, plasma, the retina, and tumor were collected according to a sampling schedule. The retina or tumor samples were homogenized in phosphate-buffered saline. The plasma and the homogenized samples were analyzed by liquid chromatography-tandem mass spectrometry or high-performance liquid chromatography. The pharmacokinetics of the compound 1 were calculated by use of the non-compartmental analysis method (Methods Mol Biol 2012; 929: 377-89).

With `CCNC(=O)c1noc(-c2cc(C(C)C)c(O)cc2O)c1-c1ccc(CN2CCOCC2)cc1` [NVP-AUY922, reference compound] the “histopathological change in the outer nuclear layer of the retina” value (rat eye tissue) was “marked degeneration and disarrangement”, the “number of TUNEL-positive apoptotic cells” value (rat eye tissue) was “considerably increase” and the “presence in the retina 24 hours after administration” value [1] was “detected from the retina even 24 hours after administration”.
